Consider 32 compounds from ChEMBL document CHEMBL5506055, “Hit-to-Lead Optimization of the Natural Product Oridonin as Novel NLRP3 Inflammasome Inhibitors with Potent Anti-Inflammation Activity” (J Med Chem, 2024).

The target in test [1] is NACHT, LRR and PYD domains-containing protein 3 (Mus musculus) (UniProt Q8R4B8). Kind of test: Inhibition of NLRP3 inflammasome activation in LPS/ATP-induced C57BL/6 mouse BMDMs assessed as reduction in IL-1beta secretion at 200 nM preincubated with LPS for 4 hrs followed by compound addition for 30 mins and further stimulated with ATP for 30 mins by ELISA relative to control. The test is classed as cell-based. Conditions: BMDM, time 1.0 hrs.
Sequence of NACHT, LRR and PYD domains-containing protein 3 (Mus musculus) (Q8R4B8 whole entry, the tested form may be a part): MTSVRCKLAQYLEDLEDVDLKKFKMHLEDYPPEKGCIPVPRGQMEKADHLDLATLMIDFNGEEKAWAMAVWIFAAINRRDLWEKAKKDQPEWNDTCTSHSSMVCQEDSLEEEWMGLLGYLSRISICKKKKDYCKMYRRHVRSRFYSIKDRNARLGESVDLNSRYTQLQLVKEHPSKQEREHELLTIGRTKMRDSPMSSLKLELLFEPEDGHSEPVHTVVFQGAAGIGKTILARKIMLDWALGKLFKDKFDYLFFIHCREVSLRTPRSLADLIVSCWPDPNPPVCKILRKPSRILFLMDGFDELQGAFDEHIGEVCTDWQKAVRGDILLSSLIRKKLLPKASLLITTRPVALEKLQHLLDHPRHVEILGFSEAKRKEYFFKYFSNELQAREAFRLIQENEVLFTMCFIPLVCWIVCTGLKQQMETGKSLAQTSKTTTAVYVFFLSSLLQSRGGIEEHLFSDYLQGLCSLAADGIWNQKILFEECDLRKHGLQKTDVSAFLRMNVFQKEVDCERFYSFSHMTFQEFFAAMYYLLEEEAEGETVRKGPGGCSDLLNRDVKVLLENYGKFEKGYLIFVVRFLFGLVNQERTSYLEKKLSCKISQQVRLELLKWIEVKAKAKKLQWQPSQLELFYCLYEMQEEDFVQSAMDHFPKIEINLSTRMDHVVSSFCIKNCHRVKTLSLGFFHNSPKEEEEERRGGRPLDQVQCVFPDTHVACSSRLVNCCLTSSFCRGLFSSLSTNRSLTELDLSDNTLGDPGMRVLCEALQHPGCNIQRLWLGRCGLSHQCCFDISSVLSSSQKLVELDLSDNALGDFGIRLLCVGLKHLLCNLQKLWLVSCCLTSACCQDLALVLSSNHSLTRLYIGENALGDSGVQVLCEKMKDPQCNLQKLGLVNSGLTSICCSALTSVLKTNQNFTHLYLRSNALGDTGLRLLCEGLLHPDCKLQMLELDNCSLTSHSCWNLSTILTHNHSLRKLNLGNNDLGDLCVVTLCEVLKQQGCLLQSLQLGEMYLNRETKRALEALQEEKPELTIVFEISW

The target is the same in test [2]. In words: Inhibition of NLRP3 inflammasome activation in LPS/ATP-induced C57BL/6 mouse BMDMs assessed as reduction in IL-1beta secretion at 100 nM preincubated with LPS for 4 hrs followed by compound addition for 30 mins and further stimulated with ATP for 30 mins by ELISA relative to control. It is filed as cell-based. Conditions: BMDM, time 1.0 hrs.
Test [3] shares this target. In words: Inhibition of NLRP3 inflammasome activation in LPS/ATP-induced C57BL/6 mouse BMDMs assessed as reduction in IL-1beta secretion at 500 nM preincubated with LPS for 4 hrs followed by compound addition for 30 mins and further stimulated with ATP for 30 mins by ELISA relative to control. The test is classed as cell-based. As to conditions: BMDM, time 1.0 hrs.
The target in test [4] is NACHT, LRR and PYD domains-containing protein 3 (Mus musculus, UniProt Q8R4B8). Kind of test: Inhibition of NLRP3 inflammasome activation in LPS/ATP-induced C57BL/6 mouse BMDMs assessed as reduction in IL-1beta secretion preincubated with LPS for 4 hrs followed by compound addition for 30 mins and further stimulated with ATP for 30 mins by ELISA. It is filed as cell-based, BMDM.
Sequence of NACHT, LRR and PYD domains-containing protein 3 (Q8R4B8 whole entry, the tested form may be a part): as above

On to `C=C1C(=O)[C@]23[C@H](O)[C@H]1CC[C@H]2[C@]12C=CCC(C)(C)[C@H]1[C@H](O)[C@@]3(OCCC(=O)N1CCN(C)CC1)OC2`, for which the inhibition in test [1] worked out at 60.3%; in test [2], 45%; in test [3], 85.3%. Moreover, the IC50 in test [4] is 98.5 nM.
In the same order, the values of `C=C1C(=O)[C@]23[C@H](O)[C@H]1CC[C@H]2[C@]12C=CCC(C)(C)[C@H]1[C@H](O)[C@@]3(OCc1cnco1)OC2` are 83%, 50.6%, 89.5% and 99.3 nM.
The matching figures for `C=C1C(=O)[C@]23[C@H](O)[C@H]1CC[C@H]2[C@]12C=CCC(C)(C)[C@H]1[C@H](O)[C@@]3(OCCC(=O)N(C)C)OC2`: 78.2%, 56.7%, 89% and 103 nM.
For `C=C1C(=O)[C@]23[C@H](O)[C@H]1CC[C@H]2[C@]12C=CCC(C)(C)[C@H]1[C@H](O)[C@@]3(OCCCCCc1ccccc1)OC2`, the inhibition came to 44.6% in test [1], 13.3% in test [2] and 63.1% in test [3].
`C=C1C(=O)[C@]23[C@H](O)[C@H]1CC[C@H]2[C@]12C=CCC(C)(C)[C@H]1[C@H](O)[C@@]3(OCCC(=O)NC1CCCCC1)OC2`: the inhibition in test [1] is 40.6%; in test [2], 36.5%; in test [3], 74.1%. Moreover, in test [4], the IC50 was found to be 194 nM.
In the same order, the values of `C=C1C(=O)[C@]23[C@H](O)[C@H]1CC[C@H]2[C@]12C=CCC(C)(C)[C@H]1[C@H](O)[C@@]3(OCCC(=O)NC(C)C)OC2` are 63.6%, 56.2%, 84.8% and 90.6 nM.
In the same order, the values of `C=C1C(=O)[C@]23[C@H](O)[C@H]1CC[C@H]2[C@]12C=CCC(C)(C)[C@H]1[C@H](O)[C@@]3(OCCC(=O)NCCOC)OC2` are 49%, 18%, 69.9% and 286 nM.
For the compound `C=C1C(=O)[C@]23[C@H](O)[C@H]1CC[C@H]2[C@]12C=CCC(C)(C)[C@H]1[C@H](O)[C@@]3(OCCCc1ccc(Cl)cc1)OC2`, the inhibition is 47.8% in test [1], 7.3% in test [2] and 65% in test [3].
In the case of `C=C1C(=O)[C@]23[C@H](O)[C@H]1CC[C@H]2[C@@]12CO[C@]3(O)[C@@H](O)[C@@H]1C(C)(C)CC[C@@H]2O` [ORIDONIN], the inhibition amounted to 14.3% in test [1], 0.2% in test [2] and 41.2% in test [3]. In addition, in test [4], the IC50 was found to be 780 nM.
In the same order, the values of `C=CCNC(=O)CCO[C@@]12OC[C@]3(C=CCC(C)(C)[C@H]3[C@@H]1O)[C@@H]1CC[C@H]3C(=C)C(=O)[C@]12[C@@H]3O` are 62.1%, 52.6%, 93.7% and 102 nM.
Consider `C=C1C(=O)[C@]23[C@H](O)[C@H]1CC[C@H]2[C@]12C=CCC(C)(C)[C@H]1[C@H](O)[C@@]3(OCCCc1ccccc1)OC2`, for which the inhibition in test [1] was 48.4%; in test [2], 24%; in test [3], 66.6%.
`C=C1C(=O)[C@]23[C@H](O)[C@H]1CC[C@H]2[C@]12C=CCC(C)(C)[C@H]1[C@H](O)[C@@]3(OCCCC(=O)O)OC2`: the inhibition turned out to be 68.7% in test [1], 57.1% in test [2] and 83% in test [3]. Further, the IC50 in test [4] turned out to be 81.7 nM.
The matching figures for `C=C1C(=O)[C@]23[C@H](O)[C@H]1CC[C@H]2[C@]12C=CCC(C)(C)[C@H]1[C@H](O)[C@@]3(OCCC(=O)NC1CC1)OC2`: 38%, 33.3%, 65.1% and 242 nM.
On to `C=C1C(=O)[C@]23[C@H](O)[C@H]1CC[C@H]2[C@]12C=CCC(C)(C)[C@H]1[C@H](O)[C@@]3(OCc1nccs1)OC2`, for which the inhibition in test [1] turned out to be 56.7%; in test [2], 46.2%; in test [3], 63.2%. The IC50 in test [4] came out at 1890 nM.
`C=C1C(=O)[C@]23[C@H](O)[C@H]1CC[C@H]2[C@]12C=CCC(C)(C)[C@H]1[C@H](O)[C@@]3(OCCC(=O)NCCC)OC2`: the results for the inhibition in test [1], in test [2] and in test [3] were 47.2%, 20.3% and 60%, respectively. Also, the IC50 in test [4] turned out to be 283 nM.
`C=C1C(=O)[C@]23[C@H](O)[C@H]1CC[C@H]2[C@]12C=CCC(C)(C)[C@H]1[C@H](O)[C@@]3(OCc1nc(-c3ccccc3)cs1)OC2`: the inhibition in test [1] is 79.6%; in test [2], 60.9%; in test [3], 93.9%. Also, the IC50 in test [4] was 80.5 nM.
As to `C=C1C(=O)[C@]23[C@H](OCc4ccc(C#N)cc4)[C@H]1CC[C@H]2[C@]12C=CCC(C)(C)[C@H]1[C@H](O)[C@@]3(O)OC2`, the inhibition in test [1] amounted to 69.6%; in test [2], 31.1%; in test [3], 86.6%.
The matching figures for `C=C1C(=O)[C@]23[C@H](OCc4ccccc4)[C@H]1CC[C@H]2[C@]12C=CCC(C)(C)[C@H]1[C@H](O)[C@@]3(O)OC2`: 68%, 45.1% and 85.5%.
With `C=C1C(=O)[C@]23[C@H](O)[C@H]1CC[C@H]2[C@]12C=CCC(C)(C)[C@H]1[C@H](O)[C@@]3(OCCC(=O)NC)OC2`, the inhibition turned out to be 43.1% in test [1], 27.2% in test [2] and 76.7% in test [3]. Further, the IC50 in test [4] came out at 216 nM.
Consider `C=C1C(=O)[C@]23[C@H](O)[C@H]1CC[C@H]2[C@]12C=CCC(C)(C)[C@H]1[C@H](O)[C@@]3(OCc1ccccc1)OC2`, for which the values for the inhibition in test [1], in test [2] and in test [3] were 70.1%, 42.5% and 88.1%, respectively.
With `C=C1C(=O)[C@]23[C@H](O)[C@H]1CC[C@H]2[C@]12C=CCC(C)(C)[C@H]1[C@H](O)[C@@]3(OCC(=O)O)OC2`, the inhibition in test [1] is 25.5%; in test [2], 12.9%; in test [3], 55.4%. Moreover, the IC50 in test [4] was 406 nM.
The matching figures for `C=C1C(=O)[C@]23[C@H](O)[C@H]1CC[C@H]2[C@]12C=CCC(C)(C)[C@H]1[C@H](O)[C@@]3(OCc1cocn1)OC2`: 78.8%, 44.2%, 96.5% and 97.1 nM.
`C=C1C(=O)[C@]23[C@H](O)[C@H]1CC[C@H]2[C@]12C=CCC(C)(C)[C@H]1[C@H](O)[C@@]3(OCc1ccc3ccccc3c1)OC2`: the inhibition was 47.5% in test [1], 35.2% in test [2] and 85.7% in test [3].
In the same order, the values of `C=C1C(=O)[C@]23[C@H](O)[C@H]1CC[C@H]2[C@]12C=CCC(C)(C)[C@H]1[C@H](O)[C@@]3(OCc1ccc(Cl)cc1)OC2` are 63.3%, 40.5% and 75.5%.
As for `C=C1C(=O)[C@]23[C@H](O)[C@H]1CC[C@H]2[C@]12C=CCC(C)(C)[C@H]1[C@H](O)C3(OCc1cccnc1)OC2` (single isomer, unassigned), the results for the inhibition in test [1], in test [2] and in test [3] were 44.5%, 24.5% and 68.4%, respectively. The IC50 in test [4] was 232 nM.
For the compound `C=C1C(=O)[C@]23[C@H](O)[C@H]1CC[C@H]2[C@]12C=CCC(C)(C)[C@H]1[C@H](O)[C@@]3(OCc1ccc(C#N)cc1)OC2`, the inhibition in test [1] is 64.7%; in test [2], 38.8%; in test [3] it was 89.2%.
On to `C=C1C(=O)[C@]23[C@H](O)[C@H]1CC[C@H]2[C@]12C=CCC(C)(C)[C@H]1[C@H](O)[C@@]3(OCCC(=O)N1CCCC1)OC2`, for which the inhibition is 55.9% in test [1], 36.4% in test [2] and 79.1% in test [3]. In test [4], the IC50 is 161 nM.
As to `C=C1C(=O)[C@]23[C@H](O)[C@H]1CC[C@H]2[C@]12C=CCC(C)(C)[C@H]1[C@H](O)[C@@]3(OCC)OC2`, the values for the inhibition in test [1], in test [2] and in test [3] were 46.5%, 31.3% and 66.1%, respectively.
The matching figures for `C=C1C(=O)[C@]23[C@H](O)[C@H]1CC[C@H]2[C@]12C=CCC(C)(C)[C@H]1[C@H](O)[C@@]3(O)OC2`: 45.3%, 30.3% and 64.3%.
For the compound `C=C1C(=O)[C@]23[C@H](OCc4ccc(Cl)cc4)[C@H]1CC[C@H]2[C@]12C=CCC(C)(C)[C@H]1[C@H](O)[C@@]3(O)OC2`, the results for the inhibition in test [1], in test [2] and in test [3] were 58.7%, 44.8% and 72.4%, respectively.
As for `C=C1C(=O)[C@]23[C@H](O)[C@H]1CC[C@H]2[C@]12C=CCC(C)(C)[C@H]1[C@H](O)[C@@]3(OCCC(=O)NC1CCCC1)OC2`, the inhibition in test [1] was 56%; in test [2], 42.3%; in test [3], 84.7%. Moreover, the half-inhibitory concentration (IC50) in test [4] is 137 nM.
Turning to `C=C1C(=O)[C@]23[C@H](OCc4ccc5ccccc5c4)[C@H]1CC[C@H]2[C@]12C=CCC(C)(C)[C@H]1[C@H](O)[C@@]3(O)OC2`, the values for the inhibition in test [1], in test [2] and in test [3] were 50.2%, 33.1% and 71.4%, respectively.
